Reference: US10633418B2, “Cross-linked peptides containing non-peptide cross-linked structure, method for synthesizing cross-linked peptides, and novel organic compound used in method” (JITSUBO Co., Ltd., priority 2011, dated 2020)
Numbered stars: 1 amine (or outer) side, 2 acyl side, 3 side chain; on linkers, the order of the positions; unused ones are H or OH. Bridge positions count the residues as written; N and C are the ends. Square brackets hold non-standard residues; d marks the D form. Peptide text beside a SMILES is read from it. Nle(6-ylidene) = O=C([C@H](CCCC=[*:3])N[*:1])[*:2]

Legend:
[1] = system: carboxy peptidase; assay: Decomposition by carboxy peptidase (resistance to peptidase); type: in vitro ADME; conditions: carboxy peptidase (isolated enzyme, SIGMA); enzyme solution 1 U/ml in PBS, peptide 0.2 mg/ml, 37° C., HPLC; time at which half of the peptide was decomposed; read-out: half period by carboxy peptidase (t1/2) (converted)
Description: (§1) Resistance to a peptidase of a peptide of the present invention was investigated using a carboxy peptidase and chymotrypsin. Resistance to a peptidase was measured as described below.
(Decomposition by Carboxy Peptidase)
A carboxy peptidase purchased from SIGMA was treated with PBS to prepare an enzyme solution of 1 U/ml, which was then kept warm at 37° C. in a water bath. Then, a peptide solution having a concentration adjusted to 5 mg/ml with DMSO: pure water=1:1 mixed solvent was treated with PBS(−) to obtain a concentration of 1 mg/ml, and the enzyme solution and the peptide solution were mixed at 4:1 so as to give a peptide final concentration of 0.2 mg/ml. Thereafter, these were reacted quickly at 37° C. With time, the reaction solution was sampled each in an amount of 0.1 ml, and a reaction stopping solution (25% TFA in acetonitrile, 20 μL) was added to stop the reaction. Samples were analyzed by HPLC, and decomposition of a peptide by the peptidase was measured. […] Time at which half of the peptide added was decomposed was measured.

[2] = target: T1, chymotrypsin (Bos taurus, UniProt P00766); assay: Decomposition by chymotrypsin (resistance to peptidase); type: in vitro ADME; conditions: chymotrypsin (isolated enzyme, SIGMA), pH 8; enzyme solution 4 U/ml in 0.1M Tris-HCl (pH8.0), peptide 0.2 mg/ml, 37° C., HPLC; read-out: half period by chymotrypsin (t1/2)
T1 construct: purchased SIGMA
Description: as §1
(Decomposition by Chymotrypsin)
Chymotrypsin purchased from SIGMA was treated with 0.1M Tris-HCl (pH8.0) to prepare an enzyme solution of 4 U/ml, which was then kept warm at 37° C. in a water bath. Then, a peptide solution treated with DMSO: pure water=1:1 to obtain a concentration of 5 mg/ml was treated with 0.1M Tris-HCl (pH8.0) to give a concentration of 1 mg/ml, and the enzyme solution and the peptide solution were mixed at 4:1 so as to give a peptide final concentration of 0.2 mg/ml. Thereafter, these were reacted quickly at 37° C. With time, the reaction solution was sampled each in an amount of 0.1 ml, and a reaction stopping solution (25% TFA in acetonitrile, 20 μL) was added to stop the reaction. Samples were analyzed by HPLC, and decomposition of a peptide by chymotrypsin was measured. Sampling was conducted at 0, 0.5 minutes, 1 minute and 2 minutes, and when decomposition of 50% or more was not obtained at 2 minutes, sampling was conducted further at 0.5 hours, 1 hour, 3 hours, and time at which half of the peptide added was decomposed was measured.

| Structure (SMILES) | half-life at 0.2 mg/ml [1] [h] | half-life at 0.2 mg/ml [2] [min] |
| --- | --- | --- |
| CC(=O)N1CCCC[C@@H](C(=O)N[C@@H](Cc2ccc(O)cc2)C(=O)O)NC(=O)[C@H](CC(C)C)NC(=O)[C@H](Cc2ccc(O)cc2)NC(=O)[C@H](CCC(N)=O)NC(=O)[C@H](CO)NC(=O)[C@H](Cc2c[nH]c3ccccc23)NC(=O)CN(C(=O)[C@@H](N)Cc2ccc(O)cc2)CCCC1 [Bdev-19] | 0.0495 | 0.97 |
| CC(C)C[C@@H]1NC(=O)[C@H](Cc2ccc(O)cc2)NC(=O)[C@H](CCC(N)=O)NC(=O)[C@H](CO)NC(=O)[C@H](Cc2c[nH]c3ccccc23)NC(=O)[C@@H](NC(=O)[C@@H](N)Cc2ccc(O)cc2)CCC/C=C\CCC[C@@H](C(=O)N[C@@H](Cc2ccc(O)cc2)C(=O)O)NC1=O [Comp. 3] (H-Y[Nle(6-ylidene)]WSQYL[Nle(6-ylidene)]Y-OH; staple (Z) 2-8) | 79 | 2.07 |
